Assay results reported in patent US12097213B2, “Sequential treatment of cancers using 6-thio-dG, checkpoint inhibitors and radiation therapy” (The Board of Regents of the University of Texas System, priority 2020, dated 2024).

Legend:
[1] = system: A375 human melanoma cancer cells; experiment: Cell viability assay (CellTiter 96), A375; format: cell-based; conditions: treated for 4 days
Experimental: Cell viability assay. For determination of IC50 with cell proliferation assays, murine and human cancer cell lines were screened with 6-thio-dG with a 2-fold dilution series in 8 different points in 96-well plates. Cells were plated 24 hrs prior to the addition of drug, incubated for 4-5 days, and assayed using CellTiter 96® Aqueous One Solution Cell Proliferation Assay according to the manufacturer's instructions (Promega). Cell number per well ranged from 1,000 to 10,000 cells per well inversely proportional to doubling times. Dose response curves were generated and IC50s calculated using Graphpad Prism. All samples were analyzed in triplicate and standard deviations are from 2-3 independent experiments.

[2] = system: LLC murine lung tumor cells; experiment: LLC tumor growth and treatment in mice; format: in vivo, mouse
Experimental: Tumor growth and treatment. A total of 5×10^5 MC38, 5×10^5 CT26 or 1×10^6 LLC cells were inoculated subcutaneously into right dorsal flanks of the mice in 100 μL phosphate buffered saline (PBS). Tumor-bearing mice were randomly grouped into treatment groups when tumors grew to around 100 mm^3. […] For CSF1R, NKL.1, CD4+ and CD8+ T cell depletion, 200 μg of antibodies were intraperitoneally injected 1 day before treatment initiation and then twice a week for 2 weeks. For PD-L1 blockade combination therapy in MC38 model, 6-thio-dG was given on day 10 and day 11, 50 μg PD-L1 was intraperitoneally injected on day 13 and 17. For PD-L1 blockade combination therapy in LLC model, 6-thio-dG was given on day 4, 5, 6, 10 and 11, 200 μg PD-L1 was intraperitoneally injected on day 8 and 13. Tumor volumes were measured by the length (a), width (b) and height (h) and calculated as tumor volume=abh/2.

[3] = system: tumor infiltrating lymphocytes (TILs); experiment: Flow cytometry of tumor infiltrating cells in MC38 tumor-bearing mice; format: in vivo, mouse
Experimental: Tumor digestion. Tumor tissues were excised and digested with 1 mg/mL Collagenase I (Sigma) and 0.5 mg/mL DNase I (Roche) in the 37° C. for 30 mins, tumor was then passed through a 70 μm cell strainer to remove large pieces of undigested tumor. Tumor infiltrating cells were washed twice with PBS containing 2 mM EDTA. Flow cytometry analysis. Single cell suspensions of cells were incubated with anti-FcγIII/II receptor (clone 2.4G2) for 15 minutes to block the non-specific binding before staining with the conjugated antibodies, and then incubated with indicated antibody for 30 mins at 4° C. in the dark. Fixable viability Dye eFlour 506 or eFlour780 (eBioscience) was used to exclude the dead cells. Foxp3 and Ki67 were stained intracellularly by using True-Nuclear transcription factor buffer set (BioLegend) following the manufacturer's instructions. Data were collected on CytoFLEX flow cytometer (Beckman Coulter, Inc) and analyzed by using FlowJo (Tree Star Inc., Ashland, OR) software.

tumor-specific T cells = experiment: IFN-γ ELISPOT of splenocytes / draining lymph node cells; format: in vivo, mouse; conditions: splenocytes re-stimulated with irradiated MC38 tumor cells 48 hrs; 3 mg/kg, days 7, 8, 9
Experimental: IFN-γ enzyme-linked immunosorbent spot assay (ELISPOT). MC38 tumors were injected subcutaneously on the right flank of C57BL/6. For 6-thio-dG single treatment, 3 mg/kg 6-thio-dG was intraperitoneally given on days 7, 8 and 9; for PD-L1 blockade combination therapy in MC38 model, 3 mg/kg 6-thio-dG was given on day 10 and day 11, 50 μg PD-L1 was intraperitoneally injected on day 11. 7 days after last treatment, tumor draining lymphoid and spleen from tumor-bearing mice were collected and single-cell suspension was prepared. Irradiated MC38 tumor cells and control LLC tumor cells were used to re-stimulate the tumor-specific T cells. 1.5×10^5 draining lymph nodes cells or splenocytes and 7.5×10^4 irradiated tumor cells were co-cultured for 48 hrs, and ELISPOT assay was performed using the IFN-γ ELISPOT kit (BD Bioscience) according to the manufacturer's instructions. IFN-γ spots were enumerated with the CTL-ImmunoSpot® S6 Analyzer (Cellular Technology Limited).

[4] = system: bone marrow derived DCs (BMDCs); experiment: In vitro co-culture of BMDC with 6-thio-dG pretreated tumor cells and T cells; format: cell-based, mouse
Experimental: In vitro co-culture of bone marrow dendritic cells (BMDC) and T cells. Single-cell suspensions of bone marrow (BM) cells were collected from tibias and femurs of C57BL/6 mice. The BM cells were placed in 10 cm dish and cultured with complete RPMI 1640 medium containing 20 ng/mL recombinant mouse GM-CSF (BioLegend). Fresh medium with was added into the culture on day 3 and day 6. The BMDCs were harvested Day 7. CD8+ T cells were isolated from lymph nodes and spleens of OT-1 transgenic mice with a negative CD8+ T cell isolation kit (Stemcell). MC38-OVA cells pretreated with 200 nM 6-thio-dG for 4 hrs. Then the drug was washed out, tumor cells were continued to culture for 72 hrs and were harvested on the same day as BMDC harvest. Then MC38-OVA cells were co-cultured with BMDC for overnight. Supernatant was collected for IFN-β ELISA test (PBL). BMDCs were sorted with CD11c+ positive selection kit (Stemcell) and co-cultured with OT-1 CD8+ T cells for 48 hrs. Supernatants were collected and IFN-γ was measured by cytometric bead array assay (BD Biosciences).
Quantitative real-time PCR. Real-time PCR was performed with SsoAdvanced™ Universal SYBR® Green Supermix (Bio-Rad) according to the manufacturer's instructions with different primer sets (human MT-CO1, forward primer 5′-[…]-3′ (SEQ ID NO: 3), reverse primer 5′-CGGGGCATTCCG GATAGGCC-3′ (SEQ ID NO: 4); human18s rRNA, forward primer 5′-[…]-3′ (SEQ ID NO: 5), reverse primer 5′-[…]-3′ (SEQ ID NO: 6); mouse IFN-β, forward primer 5′-ATGAGTGGTGGTTGCAGGC-3′ (SEQ ID NO: 7), reverse primer 5′-[…]-3′ (SEQ ID NO: 8); mouse GAPDH, forward primer 5′-CATCAAGAA GGTGGTGAAGC-3′ (SEQ ID NO: 9), reverse primer 5′-[…]-3′) (SEQ ID NO: 10) mouse GAPDH was used as the internal control. 2^−ΔΔCt method was used to calculate relative expression changes.

[5] = 6 days after the last of three daily doses, 3 mg/kg

SMILES: Nc1nc2c(ncn2[C@H]2C[C@H](O)[C@@H](CO)O2)c(=S)[nH]1 [6-thio-dG, 6-thio-2′-deoxyguanosine]
- sensitivity in vitro (cell viability) [1]: sensitive
- tumor growth ([2]; C57BL/6 mice, 3 mg/kg, three days treatment (days 4, 5, 6)): significant tumor growth delay
- tumor growth (FIG. 8A) ([2]; lewis lung carcinoma, three days 6-thio-dG followed two days later with anti-PD-L1): significant tumor control for 20 days
- Treg cells (CD4+ Foxp3+) ([3]; 3 mg/kg, days 7, 8, 9): no significant changes
- tumor infiltrating NK cells ([3]; 3 mg/kg, days 7, 8, 9): increased
- PD-1 expression on CD8+ T cells (frequency and per cell basis) ([3]; 3 mg/kg, days 7, 8, 9, 7 days after first treatment): upregulated
- CD8+ T cell proliferation (Ki67 expression) ([3]; 6 days after last treatment, 3 mg/kg): significant upregulation
- frequency of CD3+ T cells in TILs [3, 5]: increase
- frequency of CD8+ T cells in TILs [3, 5]: increase
- YFP+ T cells in the tumor ([3]; IFN-γ YFP reporter mice, eleven days after last treatment): significantly increased
- tumor-specific (OVA tetramer) CD8+ T cells in tumors ([3]; MC38-OVA tumor model, 6 days after 6-thio-dG treatment): increased
- tumor-specific cytotoxic T cell responses (IFN-γ producing T cells) (tumor-specific T cells): enhanced
- IFN-γ production by OT-1 CD8+ T cells (cross-priming capacity of DCs) ([4]; MC38-OVA pretreated with 200 nM 6-thio-dG, DC/T cell co-culture 48 hrs, CBA): significant increase
- IFN-β in DCs, WT vs Tmem173KO ([4]; MC38 pretreated with 200 nM 6-thio-dG, qPCR): induced IFN-β production in DCs in a STING-dependent manner
- IFN-β production by DCs ([4]; co-culture with tumor cells pretreated with 200 nM 6-thio-dG, ELISA): significantly increased
